This note sets out measurements from patent US20130079370A1, “Method for the Inhibition of Deubiquitinating Activity” (priority 2011, published 2013).

The test system of test [1] is proteasome reporter cell line MelJuSo Ub-YFP (UbG76V-YFP). Kind of test: Ub-YFP proteasome reporter cell line, accumulation of reporter. Type of test: cell-based. The note with it: Homo sapiens, MEL-JUSO; immunoblotting and flow cytometry; read-out: IC50, dose dependent accumulation of the Ub-YFP reporter. How it is done: b-AP15 blocks cellular proteasome function, as confirmed by use of a reporter cell line, which expresses ubiquitin tagged to yellow fluorescent protein (UbG76V-YFP) constitutively targeted for proteasomal degradation (12). […] Since inhibition of proteasome function is characterized by defects in ubiquitin turnover (13) colon carcinoma HCT116 cells were treated with b-AP15 and the level of ubiqutin conjugation analyzed by immunoblotting. […] The increase in polyubiquitin is associated with a strong proteotoxic response characterized by induction of HSPA6 (Hsp70B′), HSPA1B and DNAJB1 (Hsp40).
MCF7 cells were maintained in MEM/10% fetal calf serum. HCT-116 p53+/+, p53−/−, Bcl-2+/+, PUMA−/− and BAX−/− cells were maintained in McCoy's 5A modified medium/10% fetal calf serum. The HCT-116 p53+/+, p53−/−, PUMA−/− and BAX−/− were generated as described (36). The HCT-116 Bcl-2+/+ cell line was generated by transfecting parental HCT-116 p53+/+ cells with pCEP4 Bcl-2 (Addgene plasmid 16461) (37) and isolating high expression clones. […]
b-AP15 inhibits degradation of ubiquitin-tagged YFP in a proteasome reporter cell line (FIG. 1a). Levels of ^UbG76V-YFP accumulation were determined by flow cytometry and immunoblotting; immunoblot of ubiquitin conjugation in HCT-116 cells treated with b-AP15 (1 μM) or bortezomib (100 nM) (FIG. 1b). […]
In general terms: A western blot detects proteins with antibodies after separation by electrophoresis.

Test [2] concerns the target T1, human 19S RP (Homo sapiens, UniProt P54578+Q9Y5K5).
T1 construct: purchased Boston Biochem E-366
Kind of test: De-ubiquitinase activity assay, Ub-AMC cleavage by 19S RP. The test is classed as biochemical. The conditions noted are these: read-out: IC50, DUB activity by detection of Ub-AMC cleavage.

As for `C=CC(=O)N1C/C(=C\c2ccc([N+](=O)[O-])cc2)C(=O)/C(=C/c2ccc([N+](=O)[O-])cc2)C1` [b-AP15, (3E,5E)-3,5-bis[(4-nitrophenyl)methylidene]-1-(prop-2-enoyl)piperidin-4-one], the IC50 – broadly, the concentration that inhibits the measured activity by half – in test [1] came to 800 nM; in test [2], 2100 ± 411 nM.
